Assay results published in patent US20200397796A1, “METHODS OF TREATMENT OF CANCER COMPRISING CHK1 INHIBITORS” (SIERRA ONCOLOGY, INC., priority 2018, published 2020).

Tests used:
Single dose PK, monkey = type: in vivo
Method: (§1) The PK of SRA737 have been determined in the mouse, rat, dog and monkey following oral and IV administration (Table 3). […] An acceptable terminal elimination t1/2 was also observed in each species. […] The plasma protein binding of SRA737 at 1 and 10 μM was examined in mouse, minipig, monkey and human plasma using ultracentrifugation and in dog plasma (10 μM) using rapid equilibrium dialysis.

minipig hepatocytes = assay: Stability in cryopreserved hepatocytes, minipig; type: in vitro ADME; settings: 10 μM, after 4 hours of incubation
Method: (§2) The formation of SRA737-related metabolites was determined in cryopreserved hepatocytes from human, mouse, rat, dog, minipig and monkey samples after incubation with SRA737 at a nominal concentration of 10 μM for up to 4 hours. […] In the human hepatocyte preparation, approximately 67% of the parent remained after 4 hours of incubation compared to 75% and 7% in the rat and minipig preparations, respectively. Eight human SRA737 metabolites were observed. All SRA737 metabolites formed by human hepatocytes were also formed by monkey hepatocytes. Six metabolites were present at equal or greater abundance in the monkey.

[1] = mouse, in vivo, po
CYP1A2 = CYP1A2 induction in vitro; type: in vitro ADME; settings: positive control omeprazole, concentration dependent
PDX model of TNBC = assay: In vivo efficacy, PDX model of TNBC; set-up: species or system mouse; settings: with low-dose gemcitabine; data not shown
Method: (§3) A program of in vivo efficacy studies was performed to assess the activity of SRA737 in combination with genotoxic chemotherapy and targeted agents, and as monotherapy.
(§4) One of these models also carried a MYCN amplification. A fourth HGSOC PDX model with partial resistance to PARPi was also sensitive to high dose SRA737 monotherapy.

[2] = Plasma protein binding, ultracentrifugation, human; type: in vitro ADME; settings: for Percentage Bound / Percentage Free: Human plasma
Method: as §1

[3] = Plasma protein binding, ultracentrifugation, mouse; type: in vitro ADME; settings: for Percentage Bound / Percentage Free: Mouse plasma
Method: as §1

[4] = Parallel artificial membrane permeability assay (PAMPA); type: in vitro ADME
Method: The membrane permeability of SRA737 was assessed in the parallel artificial membrane permeability assay (PAMPA) and Caco-2 assays. Permeability in the PAMPA assay was classified as low.

[5] = tested on: cryopreserved hepatocytes; assay: Rank order of stability in cryopreserved hepatocytes across species; type: in vitro ADME, human, mouse, rat, dog, minipig and monkey; settings: 10 μM, up to 4 hours
Method: as §2

human hepatocytes = assay: Stability and metabolites in cryopreserved hepatocytes, human; type: in vitro ADME
Method: as §2

HT29 human colon cancer = assay: In vivo efficacy, HT29 xenograft model; set-up: species or system mouse; settings: data not shown
Method: as §3, §4

Chk1 = molecular target: T1, Chk1 (Homo sapiens, UniProt O14757); assay: In vitro genotoxic chemotherapy-induced Chk1 autophosphorylation, checkpoint arrest and cytotoxicity potentiation; type: cell-based
T1 construct: endogenous in cells
T1 sequence (O14757 1-476): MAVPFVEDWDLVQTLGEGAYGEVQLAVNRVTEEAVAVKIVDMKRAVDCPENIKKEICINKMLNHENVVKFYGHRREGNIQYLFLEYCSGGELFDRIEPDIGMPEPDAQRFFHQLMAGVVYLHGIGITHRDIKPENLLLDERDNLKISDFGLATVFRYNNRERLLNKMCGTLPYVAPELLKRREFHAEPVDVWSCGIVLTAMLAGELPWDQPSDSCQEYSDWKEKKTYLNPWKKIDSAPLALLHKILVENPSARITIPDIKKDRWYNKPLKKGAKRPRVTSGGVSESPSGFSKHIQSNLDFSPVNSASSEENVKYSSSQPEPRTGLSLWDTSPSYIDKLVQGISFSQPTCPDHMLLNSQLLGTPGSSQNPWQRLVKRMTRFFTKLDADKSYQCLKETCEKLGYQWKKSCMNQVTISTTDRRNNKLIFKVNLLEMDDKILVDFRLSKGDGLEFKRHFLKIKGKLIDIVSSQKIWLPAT

[6] = tested on: HGSOC PDX model with partial resistance to PARPi; assay: In vivo efficacy, HGSOC PDX model with partial resistance to PARPi; set-up: species or system mouse; settings: high dose SRA737 monotherapy
Method: as §3, §4

[7] = Excretion in urine and feces, rats; type: in vivo; settings: rat; over 24 hours
Method: The excretion of SRA737 has been studied in mice and rats administered SRA737 at either 5 mg/kg IV or 10 mg/kg orally. Urine and feces were collected for a 24-hour period after dosing. In mice, renal excretion of intact SRA737 was consistently low (less than 10% of dose) after both oral and IV administration. Following IV administration of SRA737, less than 8% of the dose was recovered as intact drug in the feces while after oral administration this figure was less than 3%. Excretion of intact SRA737 was lower in the rat than in the mouse with <1% of dose excreted renally over 24 hours and less than 1.5% of dose excreted into the feces over 24 hours.

[8] = in vivo, Monkey IV 1 mg/kg single dose
[9] = in vivo, Monkey oral 2 mg/kg single dose
[10] = in vivo, Monkey oral 10 mg/kg single dose

For N#Cc1cnc(Nc2cc(NCC3CNCCO3)c(C(F)(F)F)cn2)cn1 (stereo not drawn) [SRA737, 5-[[4-[[morpholin-2-yl]methylamino]-5-(trifluoromethyl)-2-pyridyl]amino]pyrazine-2-carbonitrile], the Foral (Single dose PK, monkey; Monkey oral 2 mg/kg single dose) was 90%, the Foral (Single dose PK, monkey; Monkey oral 10 mg/kg single dose) was 104% and the AUC(0-t) (Single dose PK, monkey; [8]) was 1520 ng·h/mL. It also gave a half-life (Single dose PK, monkey; [8]) of 5.3 h, an AUC(0-t) (Single dose PK, monkey; [9]) of 2730 ng·h/mL and a Cmax (Single dose PK, monkey; [9]) of 500 ng/mL. For the same compound, the Tmax (Single dose PK, monkey; [9]) was 1 to 2 h, the half-life (Single dose PK, monkey; [9]) was 5 h and the AUC(0-t) (Single dose PK, monkey; [10]) was 15800 ng·h/mL. The Cmax (Single dose PK, monkey; [10]) was 2640 ng/mL, the Tmax (Single dose PK, monkey; [10]) was 2 to 4 h and the half-life (Single dose PK, monkey; [10]) was 5.1 h. It also gave a bioavailability (Single dose PK, monkey; in vivo, monkey, oral 2 and 10 mg/kg, read-out: absolute oral bioavailability (% F)) of 90 to 104%, a parent remained (minipig hepatocytes) of 7% and an MTD [1] of 225 mg/m^2/day. The “induction of CYP1A2” value (CYP1A2) was under 10 % positive control, the synergy (PDX model of TNBC) was “Synergy” and the “Percentage Bound” value ([2]; 1 μM) was 87.7%. The “Percentage Free” value ([2]; 1 μM) was 12.4%, the “Percentage Bound” value ([2]; 10 μM) was 87.2% and the “Percentage Free” value ([2]; 10 μM) was 12.8%. The fraction unbound ([2]; human, plasma, humans, summary of 1 and 10 μM) was about 0.13, the “Percentage Bound” value ([3]; 1 μM) was 94.5% and the “Percentage Free” value ([3]; 1 μM) was 5.5%. The “Percentage Bound” value ([3]; 10 μM) was 93.4%, the “Percentage Free” value ([3]; 10 μM) was 6.6% and the fraction unbound ([3]; mouse, plasma, summary of 1 and 10 μM) was 0.06. The plasma protein binding ([3]; mouse, summary of 1 and 10 μM) was about 94%, the “permeability in the PAMPA assay” value [4] was “low” and the “rank order of stability from most stable to least stable” value [5] was “rat≈mouse>monkey≈human>>dog>>minipig”. For the same compound, the human-specific metabolites (human hepatocytes; compared with mouse, rat, dog, minipig and monkey hepatocytes) was “No human-specific metabolites”, the “number of human SRA737 metabolites observed” value (human hepatocytes; human hepatocytes, 10 μM, up to 4 hours) was “Eight” and the parent remained (human hepatocytes; human hepatocytes, 10 μM, after 4 hours of incubation) was “approximately 67%”. The antitumor activity (HT29 human colon cancer; in combination with standard-dose gemcitabine) was “Significant, dose-dependent antitumor activity”, the synergy (HT29 human colon cancer; with irinotecan) was “Synergy” and the synergy (HT29 human colon cancer; with low-dose gemcitabine) was “Synergy”. The “cytotoxicity of genotoxic chemotherapeutic agents and targeted agents” value (Chk1) was “dose-dependent potentiation”, the genotoxicity-induced checkpoint arrest (Chk1) was “dose-dependent inhibition” and the “genotoxic chemotherapy-induced Chk1 autophosphorylation” value (Chk1; data not shown) was “potently inhibited”. The “sensitivity to SRA737” value [6] was “sensitive”, the “intact SRA737 excreted into the feces” value [7] was “less than 1.5 % of dose” and the “intact SRA737 excreted renally” value [7] was < 1 % of dose.
